In PMC12590273, “Systematic design of DMBT1-derived peptides correlating physicochemical properties and sequence motifs with siRNA delivery and efficacy in cancer therapy” (eBioMedicine, 2025):
Non-standard residues stand in square brackets, D forms with d. Residues, ends and D or L forms follow the SMILES beside them.

How the values were obtained:
GAPDH in A375 cells = assay: GAPDH silencing by DCPP/GAPDH-siRNA complexes (KDalert kit); format: cell-based, human; details: 2.5% FBS, 48 h, three biological replicates
Protocol: GAPDH silencing: DCPP/GAPDH-siRNA complexes were prepared as above, diluted in OptiMEM, and added (50 μL) to 96-well plates. A375 and MCF7 cells (2 × 10^3 cells/well) in 50 μL OptiMEM + 5% FBS + 1% P/S were plated onto the complexes (final 100 μL, 2.5% FBS). After 48 h, GAPDH knock-down was measured with the KDalert™ kit.

[1] = tested on: siRNA (Stealth RNAi Negative Control siRNA); assay: Electrophoretic mobility shift assay (EMSA), peptide-siRNA binding/encapsulation; details: peptides 10–100 μM mixed with siRNA at 1:10–1:100 molar ratios in RNase-free water, 30 min 37 °C or 1 h 50 °C; 4% agarose gel, MOPS pH 7.5, GelRed
Protocol: Peptides (10–100 μM) were mixed with siRNA at 1:10–1:100 molar ratios in RNase-free water and incubated 30 min at 37 °C (or 1 h at 50 °C for low-binding peptides). Complexes, supplemented with 5% glycerol, were run on 4% agarose gels in MOPS buffer (pH 7.5) at 70 V for 30 min, stained with GelRed, and imaged under UV. FastRuler UltraLow served as the size marker.

A375 and MCF7 cells = assay: Cell internalisation of DCPP/Alexa Fluor 555 siRNA complexes (statements not split by cell line); format: cell-based; details: Alexa Fluor 555 siRNA 25–100 nM, 24 h, fluorescence normalised to crystal violet; cell line not stated
Protocol: A375 (RRID: CVCL_0132) and MCF7 cells (RRID: CVCL_0031) were obtained from ATCC. MEL-STV cells (here called MelST, RRID: CVCL_9U71) are immortalised human melanocytes generated by introducing SV40 large T antigen and hTERT. They are non-tumorigenic and were kindly provided by Dr. Robert Allan Weinberg (Whitehead Institute, MIT). All cell lines were cultured in DMEM + GlutaMax™ with 5% FBS at 37 °C/5% CO2. Working solutions of Alexa Fluor 555 siRNA were prepared in UltraPure DNase/RNase-Free Distilled Water at concentrations of 100–400 nM, and peptide solutions were prepared to achieve the desired peptide–siRNA binding molar ratios, selected based on the siRNA binding efficiency of each peptide. siRNA was mixed with its respective peptide solution and incubated for 30 min at 37 °C or 1 h at 50 °C, depending on the peptide. After incubation, the complexes were diluted in OptiMEM and added to the wells at 50 μL per well, with final siRNA concentrations ranging from 25 to 100 nM. […] OptiMEM without phenol red was added, and fluorescence was measured using Alexa Fluor 555 (excitation/emission: 553/568 nm, reading: 535/595 nm). Cells were subsequently stained with crystal violet and resuspended in citrate buffer, and absorbance was measured. Crystal violet absorbance was used to normalise the fluorescence signal, accounting for cell density or viability differences.

Molecule	GAPDH silencing in A375 cells (GAPDH in A375 cells)	siRNA binding / encapsulation (peptide-siRNA binding molar ratio by EMSA) [1]	shape of dose–response curve of cell interaction (A375 and MCF7 cells)
SREPRGD	significant gene silencing	efficiently bound siRNA	sigmoid curve with a plateau
Ac-GRVEVLRRRRWKPSSPPEEHH-NH2 [D4RA6H, CD44-targeting DMBT1-derived peptide containing the A6 motif]	–	no detectable siRNA binding	–
SREPRGDK	–	efficiently bound siRNA	–
CC(=O)N[C@@H](CCCCN)C(=O)N1CCC[C@H]1C(=O)N[C@@H](CO)C(=O)N[C@@H](CO)C(=O)N1CCC[C@H]1C(=O)N1CCC[C@H]1C(=O)N[C@@H](CCC(=O)O)C(=O)N[C@@H](CCC(=O)O)C(=O)NCC(=O)N[C@H](CCCNC(=N)N)C(=O)N[C@H](C(=O)N[C@@H](CCC(=O)O)C(=O)N[C@H](C(=O)N[C@@H](CC(C)C)C(=O)N[C@@H](Cc1c[nH]cn1)C(=O)N[C@@H](Cc1c[nH]cn1)C(=O)N[C@@H](Cc1c[nH]cn1)C(=O)N[C@@H](Cc1c[nH]cn1)C(=O)N[C@H](Cc1c[nH]c2ccccc12)C(=O)N[C@@H](CCCNC(=N)N)C(=O)N[C@@H](CCCNC(=N)N)C(=O)N[C@@H](CCCNC(=N)N)C(=O)N[C@@H](CCCNC(=N)N)C(=O)N[C@H](Cc1c[nH]c2ccccc12)C(N)=O)C(C)C)C(C)C [A6DH, Ac-KPSSPPEEGrVEVLHHHHwRRRRw-NH2] (Ac-KPSSPPEEG[dR]VEVLHHHH[dW]RRRR[dW]-NH2)	–	no detectable siRNA binding	–
